Experimental data taken from the CheMixHub ionic liquid set.

Experiment: xn = mol fraction of the nth substance listed

O=S(=O)([O-])[O-].[Na+].[Na+] + CCCCCCCCCCCC[N+](C)(C)C.[Br-] + O
298.15 K, 101 kPa
Details	electrical conductivity [S/m]
x2 = 0, x1 = 0.0001802	0.219
x2 = 0, x1 = 0.001799	1.527
x2 = 1.98e-06, x1 = 0.0001802	0.2192
x2 = 4.2e-06, x1 = 0.001799	1.523
x2 = 6.31e-06, x1 = 0.0001802	0.2208
x2 = 1.064e-05, x1 = 0.0001802	0.2225
x2 = 1.241e-05, x1 = 0.001799	1.523
x2 = 1.516e-05, x1 = 0.0001802	0.2243
x2 = 2.061e-05, x1 = 0.001799	1.525
x2 = 2.201e-05, x1 = 0.0001802	0.2272
x2 = 2.882e-05, x1 = 0.001799	1.526
x2 = 3.067e-05, x1 = 0.0001802	0.231
x2 = 3.667e-05, x1 = 0.001799	1.528
x2 = 3.951e-05, x1 = 0.0001802	0.2348
x2 = 4.451e-05, x1 = 0.001799	1.531
x2 = 5.088e-05, x1 = 0.0001802	0.2397
x2 = 5.235e-05, x1 = 0.001799	1.533
x2 = 6.188e-05, x1 = 0.0001802	0.2448
x2 = 6.221e-05, x1 = 0.001799	1.536
x2 = 6.932e-05, x1 = 0.001799	1.538
x2 = 7.271e-05, x1 = 0.0001801	0.2498
x2 = 7.662e-05, x1 = 0.001799	1.54
x2 = 8.353e-05, x1 = 0.0001801	0.2543
x2 = 8.391e-05, x1 = 0.001799	1.542
x2 = 9.048e-05, x1 = 0.001799	1.544
x2 = 9.435e-05, x1 = 0.0001801	0.2592
x2 = 9.741e-05, x1 = 0.001799	1.546
x2 = 0.0001038, x1 = 0.001799	1.548
x2 = 0.0001048, x1 = 0.0001801	0.2637
x2 = 0.0001104, x1 = 0.001799	1.55
x2 = 0.0001153, x1 = 0.0001801	0.2682
x2 = 0.0001173, x1 = 0.001799	1.553
x2 = 0.0001239, x1 = 0.001799	1.556
x2 = 0.0001257, x1 = 0.0001801	0.2729
x2 = 0.0001315, x1 = 0.001799	1.56
x2 = 0.0001364, x1 = 0.0001801	0.2774
x2 = 0.0001404, x1 = 0.001799	1.563
x2 = 0.0001467, x1 = 0.0001801	0.2821
x2 = 0.0001478, x1 = 0.001798	1.565
x2 = 0.0001549, x1 = 0.001798	1.567
x2 = 0.0001569, x1 = 0.0001801	0.2866
x2 = 0.0001623, x1 = 0.001798	1.569
x2 = 0.0001672, x1 = 0.0001801	0.2912
x2 = 0.0001702, x1 = 0.001798	1.571
x2 = 0.0001775, x1 = 0.0001801	0.2956
x2 = 0.0001777, x1 = 0.001798	1.573
x2 = 0.0001851, x1 = 0.001798	1.575
x2 = 0.0001876, x1 = 0.0001801	0.3
x2 = 0.000193, x1 = 0.001798	1.577
x2 = 0.0001975, x1 = 0.0001801	0.3042
x2 = 0.0001997, x1 = 0.001798	1.579
x2 = 0.0002074, x1 = 0.001798	1.58
x2 = 0.0002076, x1 = 0.0001801	0.308
x2 = 0.000215, x1 = 0.001798	1.582
x2 = 0.0002175, x1 = 0.0001801	0.311
x2 = 0.000222, x1 = 0.001798	1.584
x2 = 0.0002275, x1 = 0.0001801	0.3132
x2 = 0.0002287, x1 = 0.001798	1.586
x2 = 0.0002358, x1 = 0.001798	1.588
x2 = 0.0002368, x1 = 0.0001801	0.3149
x2 = 0.0002431, x1 = 0.001798	1.589
x2 = 0.0002466, x1 = 0.0001801	0.3165
x2 = 0.0002504, x1 = 0.001798	1.591
x2 = 0.0002565, x1 = 0.0001801	0.3178
x2 = 0.0002612, x1 = 0.001798	1.594
x2 = 0.000266, x1 = 0.0001801	0.3191
x2 = 0.0002739, x1 = 0.001798	1.597
x2 = 0.0002776, x1 = 0.0001801	0.3205
x2 = 0.0002909, x1 = 0.0001801	0.322
x2 = 0.0003061, x1 = 0.0001801	0.3238
x2 = 0.0003232, x1 = 0.0001801	0.3257
x2 = 0.0003423, x1 = 0.0001801	0.3278
x2 = 0.0003636, x1 = 0.0001801	0.3305
x2 = 0.0003892, x1 = 0.0001801	0.3335

CC(C)C[C@H](N)C(=O)O + CCCCCCCCCCCC[N+](C)(C)Cc1ccccc1.[Cl-] + O
101 kPa, x1 = 0.00893, x2 = 0
Details	electrical conductivity [S/m]
293.15 K	0.00107
298.15 K	0.00125
303.15 K	0.00136
308.15 K	0.00152
313.15 K	0.00168

CC(C)[C@H](N)C(=O)O + CCCCCCCCCCCC[N+](C)(C)Cc1ccccc1.[Cl-] + O
electrical conductivity [S/m], 101 kPa
Details	293.15 K	298.15 K	303.15 K	308.15 K	313.15 K
x1 = 0.0008894, x2 = 0	0.000591	0.000675	0.000763	0.000854	0.000953
x1 = 0.001757, x2 = 0	0.00102	0.00116	0.00131	0.00147	0.00164

CCCCCCCCC(=O)O + CCCCCCCC[N+](CCCCCCCC)(CCCCCCCC)CCCCCCCC.[Br-]
Details	electrical conductivity [S/m]
298.1 K, 100 kPa, x2 = 0.333	4.5e-06

c1ccncc1 + CCCCCCCC[n+]1ccc2ccccc2c1.O=S(=O)([N-]S(=O)(=O)C(F)(F)F)C(F)(F)F
Details	viscosity [mPa·s]
338.15 K, 101 kPa, x1 = 1	0.54
